Measured values from the NIST ThermoML archive (doi:10.1016/j.jct.2018.09.026).

Assay: mn = molality of the nth substance listed, in mol/kg
Details: 100 kPa, Liquid; for speed of sound: Frequency=3 MHz, Single path-length method; for mass density: Vibrating tube method

CNCCC=C1c2ccccc2CCc2ccccc21.Cl + O
Details | mass density, 288.15 K [kg/m3] | mass density, 293.15 K [kg/m3] | mass density, 298.15 K [kg/m3] | mass density, 303.15 K [kg/m3] | mass density, 308.15 K [kg/m3] | speed of sound, 288.15 K [m/s] | speed of sound, 293.15 K [m/s] | speed of sound, 298.15 K [m/s] | speed of sound, 303.15 K [m/s] | speed of sound, 308.15 K [m/s]
m1 = 0.025 | 1000.19 | 999.27 | 998.086 | 996.667 | 995.032 | 1471.8 | 1487.4 | 1501.2 | 1513.2 | 1523.6
m1 = 0.05 | 1001.25 | 1000.3 | 999.096 | 997.655 | 995.999 | 1475.9 | 1491.2 | 1504.8 | 1516.7 | 1526.8
m1 = 0.075 | 1002.26 | 1001.3 | 1000.07 | 998.612 | 996.941 | 1478.3 | 1493.7 | 1507.2 | 1519 | 1529.1
